Test results: PubChem BioAssay AID286 (DTP/NCI, 2004)
“And” between values parts separate entries of the source, which are not always exact repeats. Equal entries are not always repeated. Toxic doses and inconclusive results are not listed.

Test system: BDF1 mice, M5076 sarcoma ip, median survival T/C
Assay: NCI In Vivo Anticancer Drug Screen. Data for tumor model Sarcoma M5076 (intraperitoneal) in B6D2F1 (BDF1) mice
Settings: endpoint: median survival time, higher = longer survival
Experimental: The antitumor activity of compounds was measured in mice bearing transplantable tumors. Survival or tumor size were measured and the results are expressed as the measurement made in the treated group (T) divided by the measurement made in the vehicle treated control group (C). The tumor model used in this assay is Sarcoma M5076 (intraperitoneal) in B6D2F1 (BDF1) mice

[1] = dose: 50.0 mg/kg/injection, schedule: Q04DX004 (ip), vehicle: saline
[2] = dose: 100.0 mg/kg/injection, schedule: Q04DX004 (ip), vehicle: saline
[3] = dose: 200.0 mg/kg/injection, schedule: Q04DX004 (ip), vehicle: saline
[4] = dose: 100.0 mg/kg/injection, schedule: Q04DX005 (ip), vehicle: saline
[5] = dose: 200.0 mg/kg/injection, schedule: Q04DX005 (ip), vehicle: saline
[6] = dose: 400.0 mg/kg/injection, schedule: Q04DX005 (ip), vehicle: saline
[7] = dose: 100.0 mg/kg/injection, schedule: Q04DX004 (ip), vehicle: saline with Tween-80

Structure (SMILES): Cc1c2ccncc2c(C)c2c1[nH]c1ccccc12
- T/C (dose: 40.0 mg/kg/injection, schedule: Q04DX004 (ip), vehicle: saline with Tween-80): 170 % of control
- T/C (dose: 80.0 mg/kg/injection, schedule: Q04DX004 (ip), vehicle: saline with Tween-80): 191 % of control

Structure (SMILES): C[C@@]12C(=O)OC(=O)[C@]1(C)[C@H]1CC[C@@H]2O1
- T/C (dose: 0.25 mg/kg/injection, schedule: Q01DX009 (ip), vehicle: acetone): 115 % of control
- T/C (dose: 0.5 mg/kg/injection, schedule: Q01DX009 (ip), vehicle: acetone): 120 % of control
- T/C (dose: 62.5 micrograms/kg/injection, schedule: Q01DX009 (ip), vehicle: acetone): 113 % of control
- T/C (dose: 250.0 micrograms/kg/injection, schedule: Q01DX009 (ip), vehicle: acetone): 115 % of control
- T/C (dose: 1000.0 micrograms/kg/injection, schedule: Q01DX009 (ip), vehicle: acetone): 150 % of control

Structure (SMILES): CNc1nc(N(C)C)nc(N(C)C)n1
- T/C [1]: 114 % of control
- T/C [2]: 119 % of control
- T/C [3]: 123 % of control

Structure (SMILES): O=C(O)CC(NC(=O)CP(=O)(O)O)C(=O)O (stereo not given)
- T/C (dose: 50.0 mg/kg/injection, schedule: Q04DX005 (ip), vehicle: saline): 164 % of control
- T/C [4]: 180 % of control
- T/C (dose: 108.0 mg/kg/injection, schedule: Q04DX004 (ip), vehicle: saline): 178 % of control
- T/C (dose: 180.0 mg/kg/injection, schedule: Q04DX004 (ip), vehicle: saline): 195 % of control
- T/C [5]: 165 % of control
- T/C (dose: 300.0 mg/kg/injection, schedule: Q04DX004 (ip), vehicle: saline): 195 % of control
- T/C [6]: 184 % of control and 200 % of control
- T/C (dose: 500.0 mg/kg/injection, schedule: Q04DX004 (ip), vehicle: saline): 204 % of control
- T/C (dose: 833.0 mg/kg/injection, schedule: Q04DX004 (ip), vehicle: saline): 216 % of control

Structure (SMILES): Nc1nncs1
- T/C [7]: 113 % of control
- T/C [2]: 112 % of control and 116 % of control and 121 % of control
- T/C (dose: 100.0 mg/kg/injection, schedule: Q04DX005 (ip), vehicle: saline with Tween-80): 112 % of control
- T/C [4]: 119 % of control
- T/C (dose: 200.0 mg/kg/injection, schedule: Q04DX004 (ip), vehicle: saline with Tween-80): 116 % of control
- T/C [3]: 112 % of control and 124 % of control
- T/C (dose: 200.0 mg/kg/injection, schedule: Q04DX005 (ip), vehicle: saline with Tween-80): 121 % of control
- T/C [5]: 116 % of control and 124 % of control
- T/C (dose: 400.0 mg/kg/injection, schedule: Q04DX004 (ip), vehicle: saline with Tween-80): 119 % of control
- T/C (dose: 400.0 mg/kg/injection, schedule: Q04DX004 (ip), vehicle: saline): 110 % of control
- T/C [6]: 109 % of control
- T/C (dose: 800.0 mg/kg/injection, schedule: Q04DX004 (ip), vehicle: saline with Tween-80): 124 % of control
- T/C (dose: 800.0 mg/kg/injection, schedule: Q04DX004 (ip), vehicle: saline): 106 % of control
- T/C (dose: 800.0 mg/kg/injection, schedule: Q04DX005 (ip), vehicle: saline): 151 % of control

Structure (SMILES): CC[C@]1(O)C[C@H]2CN(CCc3c([nH]c4ccccc34)[C@@](C(=O)OC)(c3cc4c(cc3OC)N(C)[C@H]3[C@@](O)(C(=O)OC)[C@H](OC(C)=O)[C@]5(CC)C=CCN6CC[C@]43[C@@H]65)C2)C1
- T/C (dose: 0.38 mg/kg/injection, schedule: Q04DX005 (ip), vehicle: saline): 180 % of control
- T/C (dose: 0.75 mg/kg/injection, schedule: Q04DX005 (ip), vehicle: saline): 293 % of control
- T/C (dose: 1.5 mg/kg/injection, schedule: Q04DX005 (ip), vehicle: saline): 202 % of control and 401 % of control
- T/C (dose: 3.0 mg/kg/injection, schedule: Q04DX005 (ip), vehicle: saline): 401 % of control and 160 % of control

Structure (SMILES): COC(=O)[C@@]12OC[C@]34[C@H]([C@@H](O)[C@@H]1O)[C@@]1(C)CC(=O)C(O)=C(C)[C@@H]1C[C@H]3OC(=O)[C@H](OC(=O)/C=C(\C)C(C)C)[C@@H]24
- T/C (dose: 0.12 mg/kg/injection, schedule: Q04DX004 (ip), vehicle: saline): 104 % of control and 107 % of control and 113 % of control
- T/C (dose: 0.12 mg/kg/injection, schedule: Q04DX005 (ip), vehicle: saline): 108 % of control (2×) and 116 % of control
- T/C (dose: 0.13 mg/kg/injection, schedule: Q04DX004 (ip), vehicle: saline): 111 % of control and 114 % of control
- T/C (dose: 0.13 mg/kg/injection, schedule: Q04DX005 (ip), vehicle: saline): 106 % of control and 114 % of control

Structure (SMILES): CC[C@]1(O)C[C@H]2CN(CCc3c([nH]c4ccccc34)[C@@](C(=O)OC)(c3cc4c(cc3OC)N(C=O)[C@H]3[C@@](O)(C(=O)OC)[C@H](OC(C)=O)[C@]5(CC)C=CCN6CC[C@]43[C@@H]65)C2)C1
- T/C (dose: 0.25 mg/kg/injection, schedule: Q04DX005 (ip), vehicle: saline): 112 % of control and 124 % of control
- T/C (dose: 0.5 mg/kg/injection, schedule: Q04DX005 (ip), vehicle: saline): 164 % of control
- T/C (dose: 1.0 mg/kg/injection, schedule: Q04DX005 (ip), vehicle: saline): 228 % of control and 156 % of control

Structure (SMILES): CC1CCC(NC(=O)N(CCCl)N=O)CC1 (stereo not given)
- T/C (dose: 3.0 mg/kg/injection, schedule: Q04DX004 (ip), vehicle: Klucel (hydroxypropylcellulose) (HPC)): 216 % of control and 163 % of control
- T/C (dose: 6.0 mg/kg/injection, schedule: Q04DX004 (ip), vehicle: Klucel (hydroxypropylcellulose) (HPC)): 189 % of control and 193 % of control and 216 % of control
- T/C (dose: 12.0 mg/kg/injection, schedule: Q04DX004 (ip), vehicle: Klucel (hydroxypropylcellulose) (HPC)): 216 % of control and 233 % of control and 320 % of control

Structure (SMILES): S=c1nc[nH]c2nc[nH]c12
- T/C (dose: 20.0 mg/kg/injection, schedule: Q04DX005 (ip), vehicle: alkali diluted with saline): 96 % of control
- T/C (dose: 80.0 mg/kg/injection, schedule: Q04DX005 (ip), vehicle: alkali diluted with saline): 120 % of control

Structure (SMILES): C=C1C(=O)OC2C1C(OC(=O)/C(C)=C\C)CC(C)=C1C(=O)C3OC3(C)C12O (stereo not given)
- T/C (dose: 1.25 mg/kg/injection, schedule: Q01DX009 (ip), vehicle: saline + alcohol): 97 % of control
- T/C (dose: 2.5 mg/kg/injection, schedule: Q01DX009 (ip), vehicle: saline + alcohol): 105 % of control
- T/C (dose: 5.0 mg/kg/injection, schedule: Q01DX009 (ip), vehicle: saline + alcohol): 105 % of control and 121 % of control
- T/C (dose: 20.0 mg/kg/injection, schedule: Q01DX009 (ip), vehicle: saline + alcohol): 117 % of control

Structure (SMILES): CC(=O)/C(=C\c1ccc(Cl)c(Cl)c1)C(=O)CCN(C)C
- T/C (dose: 12.5 mg/kg/injection, schedule: Q04DX004 (ip), vehicle: saline): 100 % of control
- T/C (dose: 25.0 mg/kg/injection, schedule: Q04DX004 (ip), vehicle: saline): 97 % of control
- T/C [1]: 101 % of control
- T/C [2]: 86 % of control

Structure (SMILES): O=Cc1c(O)c2ccccc2[nH]c1=O
- T/C (dose: 25.0 mg/kg/injection, schedule: Q04DX004 (ip), vehicle: saline with Tween-80): 98 % of control
- T/C (dose: 50.0 mg/kg/injection, schedule: Q04DX004 (ip), vehicle: saline with Tween-80): 124 % of control
- T/C [7]: 101 % of control

Structure (SMILES): COc1cc2nc3occc3c(OC)c2cc1OCC(O)C(C)(C)O (stereo not given)
- T/C (dose: 2.0 mg/kg/injection, schedule: Q01DX009 (ip), vehicle: Klucel (hydroxypropylcellulose) (HPC)): 106 % of control
- T/C (dose: 4.0 mg/kg/injection, schedule: Q01DX009 (ip), vehicle: Klucel (hydroxypropylcellulose) (HPC)): 117 % of control
- T/C (dose: 8.0 mg/kg/injection, schedule: Q01DX009 (ip), vehicle: Klucel (hydroxypropylcellulose) (HPC)): 106 % of control
- T/C (dose: 16.0 mg/kg/injection, schedule: Q01DX009 (ip), vehicle: Klucel (hydroxypropylcellulose) (HPC)): 113 % of control
- T/C (dose: 32.0 mg/kg/injection, schedule: Q01DX009 (ip), vehicle: Klucel (hydroxypropylcellulose) (HPC)): 106 % of control
